# Patent publication US20200397816A1, “METHODS TO TREAT INFLAMMATORY AND SMOOTH MUSCLE CELL PROLIFERATION DISORDERS” (THE TRUSTEES OF INDIANA UNIVERSITY, priority 2019, published 2020)
# Columns and labels:
# pSTAT3 (Y705) = experiment: EMAP II induced pSTAT3 western blot in RAW 264.7 macrophages; assay type: cell-based, mouse; conditions: RAW 264.7 macrophages, EMAP II 24 hours
# Description: (§1) After appropriate treatments, protein lysates were prepared by using RIPA buffer supplemented with phosphatase and protease inhibitors (Thermo Fischer Scientific). Alpha-tubulin was used as a loading control. For nuclear and cytoplasmic fractionation, NE-PER kit from Thermo Fischer Scientific was used. Western blots were performed according to standard methods and quantified using densitometry using Image Studio Lite software from LI-COR Biosciences.
# as §1, with “(Thermo Fisher” for “(Thermo Fischer”
# EGR1 [1] = experiment: EGR1 protein western blot and immunofluorescence in hPASMC; assay type: cell-based, human; conditions: SMCs (hPASMC); MEK inhibitor 10 μM; EMAP II 1 hour
# Description: (§2) RAW 264.7 (ATCC) mouse macrophages and Human Embryonic Kidney (HEK) 293T cells were cultured in DMEM media with 10% fetal bovine serum […] and glutamine HEPES buffer and beta-mercaptoethanol were added to the growth medium used for RAW 264.7 macrophages. Primary human pulmonary artery smooth muscle cells (hPASMC) purchased from Lonza (Walkersville, Md.) were cultured in complete growth medium containing smooth muscle growth media-2 (SmGM-2) with 10% FBS and growth factors provided as a kit by the supplier (Lonza, (Walkersville, Md.). THP-1 human monocyte cells were cultured in RPMI 1640 with 10% FBS and glutamine Cells were cultured in a humidified atmosphere with 5% CO2 at 370 C. For all studies passages 5-14 were used for RAW 264.7 and passages 5-10 were used for hPASMCs. For treatment studies, subconfluent cells plated in multi-well plates were serum starved and if required, pretreated for with inhibitors before stimulating with 2 μg/mL recombinant EMAP II.
# as §1
# Primary hPASMCs cells or human THP-1 macrophages were seeded in Nunc Lab-Tek™ II 4-well imaging plates (Thermo Fisher Scientific) chamber well slides and cultured in growth medium. After the serum starvation cells were stimulated with EMAP II. Treated cells were rinsed with PBS and fixed with 4% paraformaldehyde at room temperature for 15 min and permeabilized with 0.1% Triton X-100 at room temperature for 10 min After washing with PBS three times, the cells were incubated with EGR1, 1amin, or pSphK1 antibody at 40C overnight. The cells were then rinsed with PBS three times and subsequently incubated with respective secondary antibody conjugated with Alex Fluor 647 and 488 or Phalloidin 488 at room temperature for 1 h. The cells were rinsed with PBS three times and coverslips were mounted with SlowFade Gold Antifade Mountant with DAPI (Thermo Fischer Scientific) and the cells were examined under Olympus microscope with 40× for EGR1 expression and with 60× for pSphK1 water immersion.
# Knockdown of endogenous EGR1 was carried out by transfecting with 25 nM final concentration of ON-TARGETplus siRNAs specific for EGR1 or non-targeting control purchased from GE Dharmacon (Lafayette,CO) using Viromer Blue (Lipocalyx) per manufacturer's instructions. Cells were stimulated with EMAP II 48 h post-transfection.
# RAW 264.7 (ATCC) mouse macrophages and HEK-293T (ATCC) cells were cultured in DMEM media with 10% (v/v) fetal bovine serum (FBS) and 2 mM glutamine HEPES buffer and beta-mercaptoethanol were added to the growth medium used for RAW 264.7 macrophages. […]
# EGR1 [2] = experiment: EGR1 protein western blot (whole cell lysates, nuclear fractions) in RAW 264.7 macrophages; assay type: cell-based, mouse; conditions: macrophages (RAW 264.7); MEK inhibitor 10 μM; EMAP II 2 hours
# Description: as §2, §1
# RAW 264.7 (ATCC) mouse macrophages and HEK-293T (ATCC) cells were cultured in DMEM media with 10% (v/v) fetal bovine serum (FBS) and 2 mM glutamine HEPES buffer and beta-mercaptoethanol were added to the growth medium used for RAW 264.7 macrophages. Primary human pulmonary artery smooth muscle cells (hPASMC) purchased from Lonza (Walkersville, Md.) were cultured in complete growth medium containing smooth muscle growth media-2 (SmGM-2) with 10% FBS and growth factors provided as a kit by the supplier (Lonza, (Walkersville, Md.). THP-1 human monocyte cells were cultured in RPMI 1640 with 10% FBS and glutamine Cells were cultured in a humidified atmosphere with 5% CO2 at 37° C. For all studies passages 5-14 were used for RAW 264.7 and passages 5-10 were used for hPASMCs. For treatment studies, subconfluent cells plated in multi-well plates were serum starved and if required, pretreated with inhibitors before stimulation with 2 μg/mL recombinant EMAP II.
# as §1, with “Fisher” for “Fischer”, “For nuclear and cytoplasmic fractionation, NE-PER kit from Thermo Fischer Scientific was used.” left out
# EGR1 [3] = experiment: EGR1 transcripts qRT-PCR in RAW 264.7 macrophages; assay type: cell-based, mouse; conditions: 10 μM pretreatment, EMAP II 45 minutes, normalized against Hprt1
# Description: (§3) RAW 264.7 (ATCC) mouse macrophages and Human Embryonic Kidney (HEK) 293T cells were cultured in DMEM media with 10% fetal bovine serum […] and glutamine HEPES buffer and beta-mercaptoethanol were added to the growth medium used for RAW 264.7 macrophages. […]
# (§4) Total RNA was extracted with TriZol using standard RNA extraction protocol and reverse transcribed with SuperScript III Reverse Transcriptase (Thermo Fischer Scientific). SphK1, Tnf, Il6, EGR1, Gapdh, Hprt1 transcripts were quantified using PrimePCR SYBR Green assays from BioRad. […]
# (§5) Total RNA was extracted with TriZol using standard RNA extraction protocol and reverse transcribed with SuperScript III Reverse Transcriptase (Thermo Fisher Scientific). SPHK1, Tnf, Il6, EGR1, Gapdh, Hprt1 transcripts were quantified using PrimePCR SYBR Green assays from BioRad.
# EGR1 [4] = experiment: EGR1 transcripts qRT-PCR in hPASMC; assay type: cell-based, human; conditions: SMCs; 10 μM pretreatment; EMAP II 45 minutes; normalized against Gapdh
# Description: as §3, §4, §5
# [5] = system: STAT3 transcription reporter plasmid; experiment: STAT3 transcription reporter luciferase assay in HEK293-T cells; assay type: cell-based, human; conditions: inhibitor pretreatment 1 hour, luciferase after 24 hours
# Description: (§6) Transfection and luciferase assay. Human Embryonic Kidney (HEK) 293-T cells cultured in DMEM media containing 10% serum were reverse co-transfected with pGL4.47fluc2P/SIE/Hygrol and pGL4.74 [hRluc/TK] using Attractene Transfection Reagent (301005, Qiagen) as per manufacturer's protocol. Pretreated with inhibitors for 1 hour as required. After the treatment cells were incubated for 24 hours and luciferase activity was measured using Dual-Glo Luciferase Assay (E2920, Promega) per manufacturer's guidelines.
# as §6, with “HEK” for “Transfection and luciferase assay. Human Embryonic Kidney (HEK)”
compound,measurement,setting,value
"CC(C)(C)C(=O)/C(=N/c1ccc(Cl)cc1)NNc1ccc(Cl)cc1 [iS1PR3, TY 52156]",EMAP II induced pSTAT3 (pSTAT3/STAT3),pSTAT3 (Y705); inhibitor pretreatment 1 μM,significantly inhibited
"O=C(NOCC1CC1)c1cc(Br)c(F)c(F)c1Nc1ccc(I)cc1Cl [iERK, PD184161, reference compound]",EMAP II induced EGR1 protein expression,EGR1 [1],blocked
same,EMAP II induced EGR1 protein expression,EGR1 [2],blocked
same,EMAP II induced pSTAT3 (pSTAT3/STAT3),pSTAT3 (Y705); inhibitor pretreatment 10 μM,significantly inhibited
"N#CC[C@H](C1CCCC1)n1cc(-c2ncnc3[nH]ccc23)cn1 [iJAK1/2, Ruxolitinib]",EMAP II induced pSTAT3 (pSTAT3/STAT3),pSTAT3 (Y705); inhibitor pretreatment 1 μM,significantly inhibited
"CC(=O)Nc1cccc(-n2c(=O)n(C3CC3)c(=O)c3c(Nc4ccc(I)cc4F)n(C)c(=O)c(C)c32)c1 [iERK1, Trametinib, reference compound]",EMAP II induced EGR1 transcription,EGR1 [3],inhibited
same,EMAP II induced EGR1 protein expression,EGR1 [1],blocked
same,EMAP II induced EGR1 transcription,EGR1 [4],inhibited
same,EMAP II induced EGR1 protein expression,EGR1 [2],blocked
"Cc1nn(C)c2nc(NNC(=O)Nc3cc(Cl)nc(Cl)c3)cc(C(C)C)c12 [iS1PR2, JTE 013]",EMAP II induced pSTAT3 (pSTAT3/STAT3),pSTAT3 (Y705); inhibitor pretreatment 1 μM,significantly inhibited
"CCCCCCc1cccc(NC(=O)[C@H](N)CCP(=O)(O)O)c1 [iS1PR1, W146]",EMAP II induced pSTAT3 (pSTAT3/STAT3),pSTAT3 (Y705); inhibitor pretreatment 1 μM,significantly inhibited
"Cc1cc(CS(=O)(=O)c2ccccc2)cc(OCc2ccc(CN3CCC[C@@H]3CO)cc2)c1 [iSphK1, PF543]",EMAP II induced luminescence of STAT3 transcription reporter plasmid,[5],significantly inhibited
same,EMAP II induced pSTAT3 (pSTAT3/STAT3),pSTAT3 (Y705); inhibitor pretreatment 100 nM,significantly inhibited
same,EMAP II induced pSTAT3 (pSTAT3/STAT3),"pSTAT3 (Y705); inhibitor pretreatment 100 nM, listed as PF543",inhibited
same,EMAP II induced pSTAT3 (pSTAT3/STAT3),"pSTAT3 (Y705); inhibitor pretreatment 100 nM, listed as iSPHK1",significantly inhibited
